According to patent US8536204B2, “Amides and thioamides as pesticides” (Bayer CropScience AG, priority 2009, dated 2013):

Legend:
[1] = Determination of the logP values (formic acid method) by HPLC; format: physicochemical; details: reversed-phase HPLC column (C 18), pH 3.4, HPLC on reversed-phase column (C 18), acidic range (pH 3.4), 55° C.; Table 1; read-out: logP (HCOOH)
Description: 1) Description of Method for Determining the LogP Values (Formic Acid Method)
The logP values reported in the table were determined according to EEC-Directive 79/831 Annex V.A8 by HPLC (High Performance Liquid Chromatography) on a reversed-phase column (C 18). Temperature: 55° C.
Eluents for the determination in the acidic range (pH 3.4):
Eluent A: acetonitrile+1 ml of formic acid/litre. Eluent B: water+0.9 ml of formic acid/litre.
Gradient: from 10% eluent A/90% eluent B to 95% eluent A/5% eluent B in 4.25 min.
The calibration was effected with unbranched alkan-2-ones (with 3 to 16 carbon atoms), whose logP values are known (determination of the logP values on the basis of the retention times by linear interpolation between two successive alkanones). The lambda-max values were determined with reference to the UV spectra from 200 nm to 400 nm in the maxima of the chromatographic signals.

[2] = system: green peach aphid (Myzus persicae); assay: Myzus test (spray treatment); format: in vivo; details: 144 h, application rate 500 g/ha, spray on Chinese cabbage leaf slices, after 6 days, read-out: efficacy in % (100% means that all aphids have been killed)
Description: Myzus Test (Spray Treatment)
Solvent: • 78 parts by weight of acetone • 1.5 parts by weight of dimethylformamide
(§1) Emulsifier: 0.5 part by weight of alkylaryl polyglycol ether
(§2) To produce an appropriate active ingredient formulation, 1 part by weight of active ingredient is mixed with the amounts of solvent and emulsifier specified and the concentrate is diluted to the desired concentration with emulsifier-containing water.
Chinese cabbage leaf slices (Brassica pekinensis) infested by all stages of the green peach aphid (Myzus persicae) are sprayed with an active ingredient formulation of the desired concentration.
After 6 days, the efficacy in % is determined. 100% means that all aphids have been killed; 0% means that no aphids have been killed.

[3] = system: larvae of the mustard beetle (Phaedon cochleariae); assay: Phaedon test (spray treatment); format: in vivo; details: application rate 500 g/ha, spray on Chinese cabbage leaf slices, after 7 days
Description: Phaedon Test (Spray Treatment)
Solvent: • 78.0 parts by weight of acetone • 1.5 parts by weight of dimethylformamide
as §1, §2
Chinese cabbage leaf slices (Brassica pekinensis) are sprayed with an active ingredient formulation of the desired concentration and, after drying, populated with larvae of the mustard beetle (Phaedon cochleariae).
After 7 days, the efficacy in % is determined. 100% means that all beetle larvae were killed; 0% means that no beetle larvae were killed.

Boophilus microplus = Boophilus microplus test (injection); format: in vivo; details: application rate 20 μg/animal, injected into the abdomen, after 7 days
Description: Boophilus Microplus Test (Injection)
Solvent: dimethyl sulphoxide
To produce an appropriate active ingredient formulation, 10 mg of active ingredient is mixed with 0.5 ml of solvent stated and the concentrate is diluted to the desired concentration with solvent. The active ingredient solution is injected into the abdomen (Boophilus microplus); the animals are transferred to dishes and stored in a climate-controlled room. The action is monitored by the laying of fertile eggs.
After 7 days, the efficacy in % is determined. 100% means that no ticks have laid fertile eggs.

Row | Structure (SMILES) | chromatographic logP [1] | pest or weed control at 500 g/ha [2] [%] | efficacy in % (100% means that all beetle larvae were killed) [3] [%] | efficacy in % (100% means that no ticks have laid fertile eggs) (Boophilus microplus) [%]
1 | O=C(NCC(F)(F)F)c1cnn(-c2cccnc2)c1 [Example 3, 1-(pyridin-3-yl)-N-(2,2,2-trifluoroethyl)-1H-pyrazole-4-carboxamide] | 1.18 | 100 | 100 | –
2 | O=C(NCCF)c1cnn(-c2cccnc2)c1 [Example 9] | 0.56 | 100 | – | 100
